Consider 19 molecules from ChEMBL document CHEMBL1129852, “Peptidyl -keto thiazole as potent thrombin inhibitors” (Bioorg Med Chem Lett, 1997).

The structures appear in SMILES notation.

Assay [1] can be described thus: Relative inhibition of trypsin and thrombin. Details: reference not given here.
The target in assay [2] is T1, Serine protease 1 (Bos taurus, UniProt P00760).
T1 sequence (P00760 whole entry): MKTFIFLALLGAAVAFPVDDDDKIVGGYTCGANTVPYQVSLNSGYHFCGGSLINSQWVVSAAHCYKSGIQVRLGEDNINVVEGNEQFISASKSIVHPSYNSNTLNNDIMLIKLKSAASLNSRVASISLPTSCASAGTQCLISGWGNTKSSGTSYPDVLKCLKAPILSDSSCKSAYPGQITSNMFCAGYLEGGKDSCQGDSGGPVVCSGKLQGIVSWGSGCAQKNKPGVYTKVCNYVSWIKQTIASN
The assay can be described thus: Inhibition of trypsin.

A short description of assay [3]: The compound was tested for the inhibitory activity against elastase enzyme. The assay is classed as functional. To be noted: Homo sapiens.
Assay [4] addresses Prolyl endopeptidase (Sus scrofa, UniProt P23687). The assay can be described thus: The compound was tested for the inhibitory activity against prolyl endo peptidase(PEP) enzyme.
Assay [5] deals with Prothrombin (Homo sapiens, UniProt P00734). The experiment in a line: Inhibition of thrombin.

Chain of Prolyl endopeptidase (P23687 whole entry): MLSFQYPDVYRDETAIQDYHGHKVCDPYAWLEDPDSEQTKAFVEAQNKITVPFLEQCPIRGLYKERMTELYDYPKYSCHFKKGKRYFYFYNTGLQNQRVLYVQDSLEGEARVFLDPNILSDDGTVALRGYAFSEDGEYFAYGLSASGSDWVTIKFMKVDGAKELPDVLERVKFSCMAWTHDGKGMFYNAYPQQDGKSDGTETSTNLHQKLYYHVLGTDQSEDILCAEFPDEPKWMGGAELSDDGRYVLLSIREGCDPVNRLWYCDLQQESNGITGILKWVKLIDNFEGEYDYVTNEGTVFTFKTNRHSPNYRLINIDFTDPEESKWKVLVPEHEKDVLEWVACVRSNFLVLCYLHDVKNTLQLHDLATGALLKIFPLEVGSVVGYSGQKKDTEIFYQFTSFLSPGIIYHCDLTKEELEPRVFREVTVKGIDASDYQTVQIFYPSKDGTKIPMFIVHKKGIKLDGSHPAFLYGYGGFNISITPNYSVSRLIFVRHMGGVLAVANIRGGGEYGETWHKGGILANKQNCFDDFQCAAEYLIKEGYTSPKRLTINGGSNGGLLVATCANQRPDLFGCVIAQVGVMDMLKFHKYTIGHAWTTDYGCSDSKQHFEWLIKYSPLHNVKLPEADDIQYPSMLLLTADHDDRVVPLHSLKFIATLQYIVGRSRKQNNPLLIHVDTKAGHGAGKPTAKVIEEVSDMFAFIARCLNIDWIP

As for `CC(=O)N[C@H](Cc1ccccc1)C(=O)N1CCC[C@H]1C(=O)N[C@H](CCCN=C(N)N)C(=O)c1nccs1`, in assay [1], the Ratio stood at 0.1.
As usually defined, the IC50 is the concentration that inhibits the measured activity by half. In assay [2], `N=C(N)NCCC[C@H](NC(=O)[C@@H]1CCCCN1C(=O)[C@H](N)Cc1ccccc1)C(=O)c1nccs1` showed an IC50 of 41 µM.
With `N=C(N)NCCC[C@H](NC(=O)[C@@H]1CCCN1C(=O)CCCc1ccccc1)C(=O)c1nccs1`, the IC50 in assay [3] is over 1000 µM; in assay [4], 28 µM; in assay [2] it was 0.23 µM; in assay [5], 2 µM.
In assay [5], `N=C(N)NCCC[C@@H](NC(=O)[C@@H]1CCCCN1C(=O)[C@H](N)Cc1ccccc1)C(=O)c1nccs1` had an IC50 of 0.73 µM.
As to `CC(=O)N[C@H](Cc1ccccc1)C(=O)N1CCC[C@H]1C(=O)N[C@H](CCCNC(=N)N)C(=O)c1nccs1`, the IC50 was determined as 0.23 µM in assay [2] and 2.3 µM in assay [5].
`NC(N)=NCCC[C@H](NC(=O)[C@@H]1CCN1C(=O)[C@H](N)Cc1ccccc1)C(=O)c1nccs1`: in assay [1], the Ratio turned out to be 3.
Still for that read-out and setting: the value for `NC(N)=NCCC[C@@H](NC(=O)[C@@H]1CCCCN1C(=O)[C@H](N)Cc1ccccc1)C(=O)c1nccs1` was 56.
`O=C(c1nccs1)[C@H]1CCCN1C(=O)[C@@H]1CCCN1C(=O)CCCc1ccccc1`: the IC50 was over 1000 µM in assay [3], 0.0044 µM in assay [4], over 1000 µM in assay [2] and over 1000 µM in assay [5].
Regarding `CC(C)[C@H](NC(=O)[C@@H]1CCCN1C(=O)CCCc1ccccc1)C(=O)c1nccs1`, the IC50 was over 1000 µM in assay [3], 7.7 µM in assay [4], over 1000 µM in assay [2] and over 1000 µM in assay [5].
Consider `CC(C)[C@@H](NC(=O)[C@H](N)Cc1ccccc1)C(=O)N[C@@H](CCCN=C(N)N)C(=O)c1nccs1`, for which the Ratio in assay [1] stood at 21.
Regarding `NCCCCC[C@H](NC(=O)[C@@H]1CCCN1C(=O)[C@H](N)Cc1ccccc1)C(=O)c1nccs1`, the results for the concentration for half-maximal inhibition (IC50) in assay [2] and in assay [5] were 16 µM and 14 µM, respectively. Moreover, the Ratio in assay [1] amounted to 1.1.
The corresponding values for `N=C(N)NCCC[C@@H](NC(=O)[C@@H]1CCCN1C(=O)CCc1ccccc1)C(=O)c1nccs1` are 0.23 µM, 0.82 µM and 0.3.
In the case of `NC(N)=NCCC[C@H](NC(=O)[C@@H]1CCCN1C(=O)[C@H](N)Cc1ccccc1)C(=O)c1nccs1`, the IC50 is 0.0042 µM in assay [2] and 0.0015 µM in assay [5]. Further, in assay [1], the Ratio is 2.8.
Regarding `C[C@H](NC(=O)[C@@H]1CCCN1C(=O)CCCc1ccccc1)C(=O)c1nccs1`, the IC50 in assay [3] was over 1000 µM; in assay [4], 0.005 µM; in assay [2], over 1000 µM; in assay [5] it was over 1000 µM.
With `N=C(N)NCCC[C@H](NC(=O)[C@@H]1CCN1C(=O)[C@H](N)Cc1ccccc1)C(=O)c1nccs1`, the IC50 in assay [2] was found to be 0.009 µM; in assay [5] it was 0.003 µM.
Take `NCCCC[C@H](NC(=O)[C@@H]1CCCN1C(=O)CCCc1ccccc1)C(=O)c1nccs1`: the values for the IC50 in assay [4], in assay [2] and in assay [5] were 7.8 µM, 2.4 µM and 46 µM, respectively.
As to `CC(C)[C@@H](NC(=O)[C@H](N)Cc1ccccc1)C(=O)N[C@@H](CCCNC(=N)N)C(=O)c1nccs1`, the IC50 in assay [2] is 0.18 µM; in assay [5], 0.0086 µM.
Regarding `NCCCC[C@H](NC(=O)[C@@H]1CCCN1C(=O)[C@H](N)Cc1ccccc1)C(=O)c1nccs1`, the IC50 in assay [2] amounted to 1.2 µM; in assay [5] it was 0.26 µM. Also, the Ratio in assay [1] is 4.6.
As for `N=C(N)NCCC[C@@H](NC(=O)[C@@H]1CCCN1C(=O)[C@@H](Cc1ccccc1)NC(=O)OCc1ccccc1)C(=O)c1nccs1`, the IC50 came out at 0.0016 µM in assay [2] and 0.002 µM in assay [5]. Further, the Ratio in assay [1] amounted to 0.8.
